Here are results for one molecule from patent EP4105215A1, “CO-CRYSTAL OF APIXABAN WITH A CARBOXYLIC ACID” (University of Limerick, priority 2021, dated 2022).

Data set [1] is described as follows: Dissolution / solubility in PBS 6.8 analysed by HPLC. The class given is physicochemical. The settings on record: PBS 6.8 at 37°C, triplicate. Here is the method: 25 mg equivalent of APX was sieved to 75-100µm using standard-mesh sieve and the resulting slurry was added to 500 mL phosphate buffer solution (PBS) 6.8 at 37°C stirring at 100 rpm. 1mL aliquots were taken at 1 3, 5, 10, 15, 30, 60, 120, 240, 480, 720 and 1440 minutes. Each aliquot filtered through a 0.45 µm Whattmann syringe filter. 500 µL of filtered aliquot and 500 µL of methanol were pipetted into a vial and injected to HPLC. All dissolution experiments for APX and cocrystals were carried in triplicates.
The dissolution aliquots were analysed using a Shimadzu (LC-20A) HPLC instrument with a Gemini® C18 (250 x 4.6 x 5 µm) column. The wavelength was set to 235nm with an injection volume of 10 µL and a flow rate of 1 mL/min with the oven set at 40°C.
Physicochemical properties such as PBS 6.8 solubility were analysed by high performance liquid chromatography (HPLC). […] Table 4: Solubility of APX and respective cocrystals in PBS 6.8 at 37°C

For data set [2] the following is noted: single 10 mg dose; cited from earlier work.

Consider `COc1ccc(-n2nc(C(N)=O)c3c2C(=O)N(c2ccc(N4CCCCC4=O)cc2)CC3)cc1` [APX, 1-(4-methoxyphenyl)-7-oxo-6-(4-(2-oxopiperidin-1-yl)phenyl)-4,5,6,7-tetrahydro-1H-pyrazolo[3,4-c]pyridine-3-carboxamide], for which the “Acute, T= 60 mins Conc” value in data set [1] (60 mins) came to 0.0241 mg/mL. The “Chronic, T= 720mins Conc” value in data set [1] (720 mins) was 0.0303 mg/mL. Also, the oral bioavailability result in data set [2] is reported as “about 50%”.
